No end group written: not given here.
Key:
hα9α10[L7H] nAChR = hα9α10[L7H] nAChR (Homo sapiens, UniProt Q9GZZ6+Q9UGM1, L31H); test: cell-based; assay type: cell-based
[1] = biological target: the molecule itself; test: mass spectrometry before and after reduction and alkylation

Chain of hα9α10[L7H] nAChR (Q9UGM1 26-479 limits assumed, stated change not applied): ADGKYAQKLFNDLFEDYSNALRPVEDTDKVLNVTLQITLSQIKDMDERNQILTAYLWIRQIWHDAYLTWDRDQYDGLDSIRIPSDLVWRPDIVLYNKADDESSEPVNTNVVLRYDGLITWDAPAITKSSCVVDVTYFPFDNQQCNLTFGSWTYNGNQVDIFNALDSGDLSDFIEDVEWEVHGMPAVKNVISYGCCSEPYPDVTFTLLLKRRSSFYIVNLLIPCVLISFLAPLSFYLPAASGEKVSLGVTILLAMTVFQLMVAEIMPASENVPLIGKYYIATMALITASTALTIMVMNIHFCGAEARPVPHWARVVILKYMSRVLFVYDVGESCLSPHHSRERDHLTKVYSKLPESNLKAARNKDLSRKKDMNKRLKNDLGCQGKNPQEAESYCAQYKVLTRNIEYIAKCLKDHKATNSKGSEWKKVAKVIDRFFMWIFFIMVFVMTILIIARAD
Chain of hα9α10[L7H] nAChR (Q9GZZ6 25-450 L31H limits assumed, stated change not applied): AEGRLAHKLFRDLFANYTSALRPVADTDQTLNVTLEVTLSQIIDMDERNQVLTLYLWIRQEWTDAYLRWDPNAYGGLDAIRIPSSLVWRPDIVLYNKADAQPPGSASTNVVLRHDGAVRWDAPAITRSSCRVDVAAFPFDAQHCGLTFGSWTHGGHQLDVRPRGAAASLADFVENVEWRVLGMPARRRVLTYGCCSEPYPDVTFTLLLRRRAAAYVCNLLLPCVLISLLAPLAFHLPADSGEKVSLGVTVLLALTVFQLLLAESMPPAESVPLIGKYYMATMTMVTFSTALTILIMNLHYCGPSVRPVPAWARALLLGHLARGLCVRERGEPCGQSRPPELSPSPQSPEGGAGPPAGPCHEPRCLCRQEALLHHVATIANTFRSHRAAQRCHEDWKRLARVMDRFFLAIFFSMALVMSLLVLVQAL

Molecule	effect of α10 L7H mutation on inhibitory activity (in words) (hα9α10[L7H] nAChR)	stoichiometry N [1]
Vc1.1 [reference compound]	not affected by this mutation	–
DVHRPCQSVRPGRVWGKCCLTRLCSTMCCARADCTCVYHTWRGHGCSCVM (ends and bridges not checked; cysteine pairing not given here) [αD-conotoxin GeXXA]	–	2
